Where two headings read alike, the source gives them in different places.
Legend:
[1] = target: T1, S31N mutant M2 proton channel (full length AM2 protein) (Influenza A virus, UniProt P0DOF5, S31N); format: biochemical; conditions: 100 µM
A/WSN/33-N31S (WT) virus = format: cell-based
[2] = target: T1, S31N mutant M2 proton channel (full length AM2 protein); conditions: cited from earlier work

In the case of `NC12CC3CC(CC(C3)C1)C2` [Compound 1, amantadine], the “S31N % inhibition (TEVC)” value [1] is reported as 35 ± 2/ %.
For `CC(N)C12CC3CC(CC(C3)C1)C2` (stereo not shown) [Compound 2, rimantadine], the “S31N % inhibition (TEVC)” value [1] was 13%.
In the case of `COC(=O)[C@H](Cc1cnc[nH]1)NCC12CC3CC(CC(C3)C1)C2` [Compound 3], the “S31N % inhibition (TEVC)” value [1] is reported as 0%.
In the case of `C[C@@H]1[C@@H](/N=C/c2ccc(O)cc2)C[C@H]2C[C@@H]1C2(C)C` [Compound 4], the “S31N % inhibition (TEVC)” value [1] is reported as 0%.
For `c1ccc(CNC23CC4CC(CC(C4)C2)C3)nc1` [Compound 33], the “S31N % inhibition (TEVC)” value [1] was 0%.
With `Oc1ccc(CNC23CC4CC(CC(C4)C2)C3)c(O)c1` [Compound 44, 4-(adamantan-1-ylaminomethyl)-benzene-1,3-diol] the “inhibition of plaque formation, WT virus” value (A/WSN/33-N31S (WT) virus) was “complete inhibition”.
In the case of pinanamine, the “S31N % inhibition (TEVC)” value [2] is listed as 0%.
